Results: ChEMBL document CHEMBL4049391, “Vicinal diaryl azole-based urea derivatives as potential cholesterol lowering agents acting through inhibition of SOAT enzymes” (Eur J Med Chem, 2017)

Legend:
Rattus norvegicus [1] = test: Anti-hypercholesterolemic activity in poloxamer-407-induced Wistar rat lipoprotein lipase inhibition model assessed as fold change in triglyceride level at 20 mg/kg administered as single dose via oral gavage pretreated for 4 hrs followed by poloxamer-407 induction measured over 24 hrs (reference value: 80); assay type: functional
[2] = Inhibition of rat microsomal SOAT assessed as reduction in cholesteryl oleate formation from oleoyl co-enzyme A pretreated for 15 mins followed by oleoyl co-enzyme A addition after 10 mins by HPTLC method
Rattus norvegicus [3] = organism: Rattus norvegicus; test: Inhibition of rat microsomal SOAT assessed as reduction in cholesteryl oleate formation from oleoyl co-enzyme A at 10 uM pretreated for 15 mins followed by oleoyl co-enzyme A addition measured after 10 mins by HPTLC method relative to control
[4] = target: T1, Sterol O-acyltransferase 2 (Homo sapiens, UniProt O75908); test: Inhibition of human SOAT2
T1 sequence (O75908 whole entry): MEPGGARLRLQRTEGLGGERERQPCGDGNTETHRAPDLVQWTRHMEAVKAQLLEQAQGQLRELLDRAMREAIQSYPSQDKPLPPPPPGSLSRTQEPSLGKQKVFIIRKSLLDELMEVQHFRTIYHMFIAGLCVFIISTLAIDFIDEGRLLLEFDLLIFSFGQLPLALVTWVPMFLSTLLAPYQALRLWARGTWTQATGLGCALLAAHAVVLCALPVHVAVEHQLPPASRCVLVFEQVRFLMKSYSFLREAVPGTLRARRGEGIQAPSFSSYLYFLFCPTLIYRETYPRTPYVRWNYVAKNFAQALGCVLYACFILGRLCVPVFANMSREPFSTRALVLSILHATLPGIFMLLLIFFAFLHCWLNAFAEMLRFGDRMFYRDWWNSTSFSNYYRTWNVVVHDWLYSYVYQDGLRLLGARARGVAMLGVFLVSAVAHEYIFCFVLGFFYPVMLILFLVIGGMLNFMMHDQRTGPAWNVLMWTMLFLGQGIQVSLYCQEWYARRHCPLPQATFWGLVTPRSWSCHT

Which “fold change (FC)” value (Rattus norvegicus [1]) does the source give for `CC(C)c1cc(C(C)C)c(CC(=O)NS(=O)(=O)Oc2c(C(C)C)cccc2C(C)C)c(C(C)C)c1` [AVASIMIBE] here?
Its value is 20.

With `CCCCCCCNC(=O)Nc1ccc(-c2sc(C)nc2-c2ccc(F)cc2)cc1` as the compound, how does the IC50 [2] read?
The IC50 was 5.69 µM.

What about the pIC50 [2] of the same compound?
The pIC50 was 5.244.

What about the inhibition (Rattus norvegicus [3]) of the same compound?
The inhibition was 63%.

And the “fold change (FC)” value (Rattus norvegicus [1])?
The value was 50 - 90.

What does the source list for `CCCCCCCNC(=O)Nc1ccc(-c2sc(C)nc2-c2ccc(Cl)cc2)cc1`?
IC50 [2]: 7.85 µM; pIC50 [2]: 5.105; inhibition (Rattus norvegicus [3]): 52.2%; fold change (FC) (Rattus norvegicus [1]): 50 - 90

Which IC50 [2] does the source give for `CCc1cccc(CC)c1NC(=O)Nc1ccc(-c2sc(C)nc2-c2ccc(Cl)cc2)cc1` here?
Its IC50 is 4.04 µM.

What about the pIC50 [2] of the same compound?
The pIC50 was 5.3936.

What about the inhibition (Rattus norvegicus [3]) of the same compound?
The inhibition was 63.3%.

What about the “fold change (FC)” value (Rattus norvegicus [1]) of the same compound?
The value was 50 - 90.

For `COc1cc(NC(=O)Nc2ccc(-c3sc(C)nc3-c3ccc(F)cc3)cc2)cc(OC)c1OC`, which IC50 [2] is on record?
Its IC50 is 12.6 µM.

And the pIC50 [2]?
Its pIC50 is 4.898.

And the inhibition (Rattus norvegicus [3])?
The inhibition was 42%.

Which results are given for `CCCCCCCCCCCCNC(=O)Nc1ccc(-c2nonc2-c2ccc(C)cc2)cc1`?
IC50 [2]: 123 µM; pIC50 [2]: 3.909; inhibition (Rattus norvegicus [3]): 9.15%

Which IC50 [2] does the source give for `COc1ccc(-c2nc(NC(=O)Nc3ccc(F)cc3F)sc2-c2ccc(NC(C)C)cc2)cc1` here?
The IC50 was 12.1 µM.

What about the pIC50 [2] of the same compound?
The pIC50 was 4.916.

And the inhibition (Rattus norvegicus [3])?
The inhibition was 51.7%.

With `CCCCCCCCCCCCNC(=O)Nc1ccc(-c2sc(C)nc2-c2ccc(F)cc2)cc1` as the compound, how does the IC50 [2] read?
Its IC50 is 48.6 µM.

What about the pIC50 [2] of the same compound?
Its pIC50 is 4.313.

What about the inhibition (Rattus norvegicus [3]) of the same compound?
The inhibition was 34.5%.

For `O=C(NCCCCCCSc1nc(-c2ccccc2)c(-c2ccccc2)[nH]1)Nc1ccc(F)cc1F`, which IC50 [4] is on record?
The IC50 was 1.74 µM.

For `Cc1nc(-c2ccc(F)cc2)c(-c2ccc(NC(=O)Nc3c(C(C)C)cccc3C(C)C)cc2)s1`, which IC50 [2] is on record?
The IC50 was 11.8 µM.

What about the pIC50 [2] of the same compound?
Its pIC50 is 4.926.

And the inhibition (Rattus norvegicus [3])?
Its inhibition is 42.1%.

Which IC50 [2] does the source give for `CCc1cccc(CC)c1NC(=O)Nc1ccc(-c2sc(C)nc2-c2ccc(C)cc2)cc1` here?
Its IC50 is 30.9 µM.

What about the pIC50 [2] of the same compound?
Its pIC50 is 4.412.

What about the inhibition (Rattus norvegicus [3]) of the same compound?
Its inhibition is 30.9%.

For `CCCCNC(=O)Nc1ccc(-c2sc(C)nc2-c2ccc(Cl)cc2)cc1`, which IC50 [2] is on record?
Its IC50 is 6.27 µM.

And the pIC50 [2]?
The pIC50 was 5.202.

What about the inhibition (Rattus norvegicus [3]) of the same compound?
Its inhibition is 60.7%.

What about the “fold change (FC)” value (Rattus norvegicus [1]) of the same compound?
The value was 50 - 90.

With `COc1ccc(-c2nc(C)sc2-c2ccc(NC(=O)Nc3ccccc3)cc2)cc1` as the compound, how does the IC50 [2] read?
Its IC50 is 94.8 µM.

What about the pIC50 [2] of the same compound?
Its pIC50 is 4.0233.

And the inhibition (Rattus norvegicus [3])?
Its inhibition is 11.4%.

Which IC50 [2] does the source give for `CCc1cccc(CC)c1NC(=O)Nc1ccc(-c2sc(C)nc2-c2ccc(F)cc2)cc1` here?
The IC50 was 8.4 µM.

What about the pIC50 [2] of the same compound?
Its pIC50 is 5.075.

And the inhibition (Rattus norvegicus [3])?
The inhibition was 46.7%.

What about the “fold change (FC)” value (Rattus norvegicus [1]) of the same compound?
Its value is 50 - 90.
